Values of other authors as cited in patent US20210379103A1, “ANISOTROPIC NANOPARTICLE COMPOSITIONS AND METHODS” (Buckyol Limited, priority 2017, published 2021).

Conditions: C60(OH)8 with OH-groups forming a compact island

## octa-hydroxylated fullerene [C60(OH)8]
  hydration energy: −224 kJ per mol
